Like-named read-outs stand apart in the source and are kept apart here.
Tests used:
Type in all cases: cell-based
[1] = tested on: dengue virus type 2 in Huh7 hepatoblastoma cells; experiment: Dengue Virus-2 Huh-7 EC50 (Example W); conditions: MOI of 0.07, CPE, neutral red dye, read-out: Dengue Virus-2 Huh-7 EC50 (nM) (per Ex. W)
Method in brief: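 Huh7 monolayers were infected with dengue virus type 2 (about 2000 CCID50/well, MOI 0.07) in the presence of eight 3-fold compound dilutions, top 50 μg/mL, and incubated until >80% CPE. Viability by neutral red uptake at 540 nm, normalized to virus controls; EC50 and CC50 by linear regression.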

[2] = tested on: HCV Replicon 1B; experiment: HCV Replicon 1B EC50 (Example Q); conditions: Hepatitis C virus, 72 h, read-out: HCV Replicon 1B EC50 (nM) (per Ex. Q)
Protocol: (§1) Compounds were serially diluted in ten steps of 1:3 dilutions in 384-well plates. All serial dilutions were performed in four replicates per compound within the same 384-well plate. An HCV protease inhibitor ITMN-191 at […] was added as a control of 100% inhibition of HCV replication while puromycin at 10 mM was included as a control of 100% cytotoxicity. To each well of a black polystyrene 384-well plate (Greiner Bio-one, Monroe, NC), 90 μL of cell culture medium (without Geneticin) containing 2000 suspended HCV replicon cells was added with a Biotek μFlow workstation. For compound transfer into cell culture plates, 0.4 μL of compound solution from the compound serial dilution plate was transferred to the cell culture plate on a Biomek FX workstation. The DMSO concentration in the final assay wells was 0.44%. The plates were incubated for 3 days at 37° C. with 5% CO2 and 85% humidity. The HCV replicon assay was a multiplex assay, able to assess both cytotoxicity and antireplicon activity from the same well. The CC50 assay was performed first. The media in the 384-well cell culture plate was aspirated, and the wells were washed four times with 100 μL of PBS each, using a Biotek ELX405 plate washer. A volume of 50 μL of a solution containing 400 nM calcein AM (Anaspec, Fremont, CA) in 1×PBS was added to each well of the plate with a Biotek μFlow workstation. The plate was incubated for 30 min at room temperature before the fluorescence signal (excitation 490 nm, emission 520 nm) was measured with a Perkin-Elmer Envision plate reader. The EC50 assay was performed in the same wells as the CC50 assay. The calcein-PBS solution in the 384-well cell culture plate was aspirated with a Biotek ELX405 plate washer. A volume of 20 μL of Dual-Glo luciferase buffer (Promega, Madison, WI) was added to each well of the plate with a Biotek μFlow Workstation. The plate was incubated for 10 min at room temperature. A volume of 20 μL of a solution containing a 1:100 mixture of Dual-Glo Stop & Glo substrate (Promega, Madison, WI) and Dual-Glo Stop & Glo buffer (Promega, Madison, WI) was added to each well of the plate with a Biotek μFlow Workstation. The plate was then incubated at room temperature for 10 min before the luminescence signal was measured with a Perkin-Elmer Envision Plate Reader.

[3] = tested on: HCV Replicon 2A; experiment: HCV Replicon 2A EC50 (Example Q); conditions: Hepatitis C virus, 72 h, read-out: HCV Replicon 2A EC50 (nM) (per Ex. Q)
Protocol: as §1

[4] = tested on: Respiratory syncytial virus recombinant with luciferase (RSV-Luc5) in NHBE cells; experiment: NHBE RSV-Luc5 384-well assay (EC50 RSVFLUC NHBE-384, Example U); conditions: human respiratory syncytial virus, 72 h, read-out: RSV FLuc NHBE 384 EC50 (v2) (nM) (per Ex. U)
Method in brief: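 Passage-2 NHBE cells (5,000/well) on pre-spotted compounds, 10-point 1:3 series, infected with RSV-Luc5 at MOI 1 and incubated 3 days at 37° C. Replication read by One-Glo luminescence, normalized to remdesivir (0%) and DMSO (100%); EC50 = concentration reducing replication by 50%, by non-linear regression.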

[5] = RSV HEP2-CC50-384-V2 (per Ex. V); conditions: human
[6] = HCV replicon cells, 3 days, Dual-Glo luciferase

| Structure (SMILES) | EC50 [1] [nM] | EC50 [2] [nM] | EC50 [3] [nM] | EC50 [4] [nM] | CC50 at 3 days [5] [µM] | EC50 [2, 6] [nM] | EC50 [3, 6] [nM] |
| --- | --- | --- | --- | --- | --- | --- | --- |
| CCCCCCCCCCCCCCCCC[C@@H](COP(=O)(O)OC[C@@]1(C#N)O[C@@H](c2ccc3c(N)ncnn23)[C@H](O)[C@@H]1O)OCc1cc(F)cc(C#N)c1 [Compound 74, ((2R,3S,4R)-5-(4-aminopyrrolo[2,1-f][1,2,4]triazin-7-yl)-2-cyano-3,4-dihydroxytetrahydrofuran-2-yl)methyl ((S)-2-((3-cyano-5-fluorobenzyl)oxy)nonadecyl) hydrogen phosphate] | 10000 | 26200 | 22800 | 85 | 28 |  |  |
| CCCCCCCCCCCCCCCCC[C@H](COP(=O)(O)OC[C@@]1(C#N)O[C@@H](c2ccc3c(N)ncnn23)[C@H](O)[C@@H]1O)OCc1cc(F)cc(C#N)c1 [Compound 36, ((2R,3S,4R,5S)-5-(4-aminopyrrolo[2,1-f][1,2,4]triazin-7-yl)-2-cyano-3,4-dihydroxytetrahydrofuran-2-yl)methyl ((R)-2-((3-cyano-5-fluorobenzyl)oxy)nonadecyl) hydrogen phosphate] | 10000 | 26300 | 21800 | 51 | > 50 |  |  |
| CCCCCCCCCCCCCCCCCOC[C@H](COP(=O)(O)OC[C@@]1(C#N)O[C@@H](c2ccc3c(N)ncnn23)[C@H](O)[C@@H]1O)OCc1cc(F)cc(C#N)c1 [Compound 53, ((2R,3S,4R,5S)-5-(4-aminopyrrolo[2,1-f][1,2,4]triazin-7-yl)-2-cyano-3,4-dihydroxytetrahydrofuran-2-yl)methyl ((R)-2-((3-cyano-5-fluorobenzyl)oxy)-3-(heptadecyloxy)propyl) hydrogen phosphate] | 9900 |  |  | 22 | 32.1 | 15500 | 15500 |
| CCCCCCCCCCCCCCCCCCOC[C@H](COP(=O)(O)OC[C@@]1(C#N)O[C@@H](c2ccc3c(N)ncnn23)[C@H](O)[C@@H]1O)OCc1ccc(C#N)c(Cl)c1 [Compound 7, ((2R,3S,4R,5S)-5-(4-aminopyrrolo[2,1-f][1,2,4]triazin-7-yl)-2-cyano-3,4-dihydroxytetrahydrofuran-2-yl)methyl ((R)-2-((3-chloro-4-cyanobenzyl)oxy)-3-(octadecyloxy)propyl) hydrogen phosphate] | 8700 |  |  | 36 | > 49.9 | 16700 | 30600 |
| CCCCCCCCCCCCCCCCCCOC[C@H](COP(=O)(O)OC[C@@]1(C#N)O[C@@H](c2ccc3c(N)ncnn23)[C@H](O)[C@@H]1O)OCc1cc(F)cc(C#N)c1 [Compound 1, ((2R,3S,4R,5S)-5-(4-aminopyrrolo[2,1-f][1,2,4]triazin-7-yl)-2-cyano-3,4-dihydroxytetrahydrofuran-2-yl)methyl ((R)-2-((3-cyano-5-fluorobenzyl)oxy)-3-(octadecyloxy)propyl) hydrogen phosphate] | 9700 |  |  | 54 | > 31.2 | 13800 | 20600 |
| CCCCCCCCCCCCCCCCCC[C@@H](COP(=O)(O)OC[C@@]1(C#N)O[C@@H](c2ccc3c(N)ncnn23)[C@H](O)[C@@H]1O)OCc1cc(F)cc(C#N)c1 [Compound 37, ((2R,3S,4R)-5-(4-aminopyrrolo[2,1-f][1,2,4]triazin-7-yl)-2-cyano-3,4-dihydroxytetrahydrofuran-2-yl)methyl ((S)-2-((3-cyano-5-fluorobenzyl)oxy)icosyl) hydrogen phosphate] | 11000 |  |  | 82 | > 38.1 | 22500 | 26000 |
| CCCCCCCCCCCCCCCCCCOC[C@@H](COP(=O)(O)OC[C@@]1(C#N)O[C@@H](c2ccc3c(N)ncnn23)[C@H](O)[C@@H]1O)Oc1ccc(C#N)nc1 [Compound 72, ((2R,3S,4R,5S)-5-(4-aminopyrrolo[2,1-f][1,2,4]triazin-7-yl)-2-cyano-3,4-dihydroxytetrahydrofuran-2-yl)methyl ((S)-2-((6-cyanopyridin-3-yl)oxy)-3-(octadecyloxy)propyl) hydrogen phosphate] | 2400 | 465 | > 44400 | 4 | > 49.9 |  |  |

Reference: patent publication US20250034182A1, “PHOSPHOLIPID COMPOUNDS AND METHODS OF MAKING AND USING THE SAME” (priority 2021, published 2025)
